Measured values reported in patent publication US6291470A, “Indole derivatives process for producing the same and medicinal uses of the same” (Toray Industries, Inc., priority 1992, dated 2001).

Key:
[1] = system: delayed type hypersensitivity; assay: Mouse Delayed Type Hypersensitivity Reaction Suppression Test-3 (administration into cerebral ventricles); type: in vivo; conditions: 5×10^-8 mol/mouse into cerebral ventricles; BALB/c
Excerpt: (§1) BALB/c mice (male, 7 weeks old) were used, and each group consisted of 4-5 mice. Spleen cells (1×10^7) obtained from a donor mouse (C57BL/6) was subcutaneously administered to sensitize the mice. On Day 7 from the sensitization, the spleen cells (5×10^6) of the donor were subcutaneously administered on the right footpad and spleen cells (5×10^6) obtained from a mouse of the same strain as the recipient mice were subcutaneously administered on the left footpad. Twenty four hours later, the thicknesses of the right and left footpads were measured with a dial thickness gage, and the difference in thicknesses of the right and left footpads before the induction of the reaction and 24 hours after the induction of the reaction was employed as the index of the degree of the reaction.
The test compound was dissolved in water and 5×10^-8 mol/mouse was administered into cerebral ventricles. In the control group, water alone was administered similarly. The dose was 5 μl/mouse in both the study groups and the control group.

[2] = system: delayed type hypersensitivity; assay: Delayed type hypersensitivity suppression test using mice from which adrenal glands have been removed; type: in vivo, mouse; conditions: for % Suppression: subcutaneous, totally 8 days
Excerpt: The mechanism of immunosuppression of the compound of the present invention was examined using delayed type hypersensitivity suppression test using mice from which adrenal glands have been removed.
as §1
The adrenectomy was performed by cutting the back of each recipient mouse under anesthesia with ether before the sensitization and removing the adrenal gland. Sham operation was performed by cutting the back of each recipient mouse but not removing the adrenal gland.
The test compound was dissolved in 10% DMSO-water and was subcutaneously administered everyday from the day of sensitization to the day of induction of the reaction, totally 8 days. In the control group, 10% DMSO-water alone was administered in the same manner. The volume of administration was 10 ml/kg in both study groups and in the control groups.

SMILES: Oc1ccc2c3c1O[C@H]1c4[nH]c5ccccc5c4C[C@@]4(O)[C@@H](C2)N(CC2CC2)CC[C@]314 [NTI, reference compound]
- % Suppression [1]: 40%
- suppressive effect after removing adrenal gland (in words) ([2]; Adrenectomy vs sham): disappeared by removing adrenal gland
- % Suppression ([2]; Adrenectomy): 0%
- % Suppression ([2]; Sham Operation): 50%
